Measured values: patent publication US20230240989A1, “LIPOSOMAL OZONE NANOSOLUTIONS” (priority 2021, published 2023)
Where “and” joins values, the source holds several entries; their conditions need not be identical. Equal values may be shown once. Read-outs that look alike come from different tables or passages of the source. Each block holds one molecule with its values, some of them ahead of it.

Experiments:
[1] = tested on: female rats of Sprague downey breed; conditions: skin biopsy of laparotomy incision line, group average
[2] = tested on: L-929 mouse fibroblast cell line; conditions: 48 h
[3] = tested on: BALB/c 3T3 (CCL-163) cell line; conditions: mouse, 48 h
[4] = tested on: back skin of New Zealand albino rabbits; experiment: Skin irritation test TS EN ISO 10993-10 (barrier solution)
Text: Three healthy young New Zealand albino rabbits with a body weight of 2-3 kg were used as experimental animals.
Test material given under the title of TS EN ISO 10993-10:2010 annex A A.2,2 Liquid test materials; Liquids were applied without dilution or by direct precipitation or, if not applicable, at a dose of 1600 ppm, which is the usage dose according to the guideline. […] The sponge impregnated with the nanosolution of the invention was kept in direct contact with the sample application areas. SLS impregnated sponge was applied to the positive control area. The samples were covered with gauze, fixed with a bandage, and topically contacted with the back skin for 4 hours. The primary irritation index was determined by evaluating the application areas (1±0.1) […], and (72±2) hours after the 4th hour application, according to the skin reaction score given in Chart 1. As stated in the standard, the 1st hour was not included in the calculation.

[5] = tested on: back skin of New Zealand albino rabbits; experiment: Irritation test TS EN ISO 10993-10 (injection solution); type: in vivo, rabbit; conditions: for Primary irritation score (score average): 24th-72nd hour, 1st hour not included
albino guinea pigs = experiment: Sensitization test, Closed Patch-Buehler method; conditions: per animal
[6] = tested on: inner cheek pouch of Syrian hamsters; experiment: Oral mucosal irritation test
Experimental: Oral mucosal irritation test was carried out considering the TS EN ISO 10993-10:2010 standard, the experimental animal used in the test is considered according to TS EN ISO 10993-2:2006 standard, the material preparation is made according to TS EN ISO 10993-12:2012 standard guidelines. The test is performed for materials intended to come into contact with oral tissue and where safety data cannot be obtained by other means.
Animals were acclimated to the environment by taking care of them as specified in TS EN ISO 10993-2:2006. Healthy young adult Syrian hamsters of both sexes, unrelated to a single strain, were used for testing. Product sample-impregnated gauze was placed in the inner cheek pouch of each animal under ketamine/Xylazine anesthesia. The exposure time was evaluated according to the rule of reflecting the actual expected use time of the material, and the sample was kept in the inner cheek pouch for 1 hour.
Test material given under the title of ISO 10993-10:2010 annex A A.2,2 Liquid test materials; Liquids were applied without dilution or by direct precipitation or, if not applicable, at a dose of 1600 ppm, which is the usage dose according to the guideline. Saline solution-impregnated absorbent gauze was used as negative control. As a positive control, HCl acid solution adjusted to pH 1.5 was used in our laboratory based on the rule that liquids with pH 2 and below are considered irritating.
The left inner cheek pouch of each animal was evaluated for the experimental sample, and the contralateral (Right) inner cheek was considered as the negative control. No material was placed into the right side inner cheek pouch, it was only washed with physiological saline and dissected at the end of the experiment.
Gauze cloth impregnated with a usage dose of 1600 ppm of the nanosolution of the invention was placed in the left inner cheek pouch of Syrian hamsters under ketamine/Xylazine anesthesia, whose inner cheeks were emptied and washed with saline. After the exposure of the subject to the sample for 1 hour, the sample was removed and the inner cheek was rinsed with saline solution, taking care not to contaminate the other cheek. Experiment (left) and control (right) inner cheek pouches were evaluated macroscopically according to chart 1. The experiment was terminated after 1 hour of contact.
According to the standard directive, the exposure time should reflect the actual expected use time of the material, but should not be less than 5 minutes. The repeated observation rating (Table 1) performed at long-term chronic exposures is summed up and divided by the total repeat application 4. Since it is a device with subacute use, the application was performed 4 times with one hour intervals. Observations of the sample applied left inner cheek were compared with the right inner cheeks (negative control) washed with saline.

[7] = left cheek (experiment), single subject

SMILES: CCN(CC)CC(=O)Nc1c(C)cccc1C [1% lidocaine]
Collagen Epidermis/Dermis (%) [1]: 25.33 ± 2.46% | Bleeding score ([1]; scoring out of 3): 0.83 ± 0.54 | Connective tissue score ([1]; scoring out of 3): 2.67 ± 0.33 | Edema score ([1]; scoring out of 3): 0.67 ± 0.33 | Inflammation score ([1]; scoring out of 3): 2.50 ± 0.34 | Vascular formation score ([1]; scoring out of 3): 1.83 ± 0.17

Vitality % ([2]; 10 % v/v): 53.44% | Vitality % ([2]; 30 % v/v): 36.46% | Vitality % ([3]; 3 % v/v): 31.25% | Optical density (OD) mean value 570 nm ± standard deviation (SD) ([3]; 10 % v/v): 0.1 ± 0.06 | Vitality % ([3]; 10 % v/v): 24.37% | Optical density (OD) mean value 570 nm ± standard deviation (SD) ([3]; 30 % v/v): 0.078 ± 0.02
SMILES: C[S+](C)[O-] [PC, Dimethylsulfoxide]

SMILES: CCCCCCCCCCCCOS(=O)(=O)[O-].[Na+] [Positive control, Sodium lauryl sulphate]
Primary Irritation Score Rabbit 1 ([4]; 24th, 48th, 72nd hours): 2.167 ± 1.169 | Primary Irritation Score Rabbit 2 ([4]; 24th, 48th, 72nd hours): 1.333 ± 1.2 | Primary Irritation Score Rabbit 3 ([4]; 24th, 48th, 72nd hours): 1.500 ± 1.049 | Primary Irritation Index ([4]; three rabbits): 1.666 | Primary irritation score (score average) ([5]; Rabbit 1): 2.167 ± 1.169 | Primary irritation score (score average) ([5]; Rabbit 2): 1.333 ± 1.211 | Primary irritation score (score average) ([5]; Rabbit 3): 1.500 ± 1.049 | Primary Irritation Index ([5]; mean of three rabbits): 1.666 | Magnusson and Kligman Rating (albino guinea pigs; 24th hour after stimulation, 2020 Oct. 27): 2 | Magnusson and Kligman Rating (albino guinea pigs; 48th hour after stimulation, 2020 Oct. 28): 2 | Magnusson and Kligman Rating (albino guinea pigs; Induction first week, application date 2020 Sep. 24, 6 h closed patch): 1 | Magnusson and Kligman Rating (albino guinea pigs; Induction first week, application date 2020 Sep. 26, 6 h closed patch): 1 | Magnusson and Kligman Rating (albino guinea pigs; Induction first week, application date 2020 Sep. 28, 6 h closed patch): 1 | Magnusson and Kligman Rating (albino guinea pigs; Induction, application date 2020 Oct. 2, 6 h closed patch, sulphate): 2 (3×) and 1 (2×) | Magnusson and Kligman Rating (albino guinea pigs; Induction, application date 2020 Oct. 4, 6 h closed patch): 2 | Magnusson and Kligman Rating (albino guinea pigs; Induction, application date 2020 Oct. 7, 6 h closed patch): 2 | Magnusson and Kligman Rating (albino guinea pigs; Induction, application date 2020 Oct. 9, 6 h closed patch, sulphate): 2 (4×) and 3 | Magnusson and Kligman Rating (albino guinea pigs; Induction, application date 2020 Oct. 12, 6 h closed patch, sulphate): 3 (4×) and 2 | Magnusson and Kligman Rating (albino guinea pigs; Induction, application date 2020 Sep. 31, 6 h closed patch, sulphate): 1 (4×) and 2 | Magnusson and Kligman Rating (albino guinea pigs; Stimulation application, 2020 Oct. 26, sulphate): 2 (4×) and 3 | macroscopic examination of inner cheek mucosa ([6]; hamster, in vivo): Areas of mucosal erosion were noted | Microscopic irritation score Edema [6, 7]: 0 | Microscopic irritation score Epithelium [6, 7]: 3 | Microscopic irritation score Leukocyte infiltration [6, 7]: 2 (Mild (26 to 50)) | Microscopic irritation score Vascular congestion [6, 7]: 1
